The text below walks through data of patent publication US11147778B2, “Siderophore-polymer conjugates for increasing bacterial sensitivity to antibiotics” (Wisconsin Alumni Research Foundation, priority 2016, dated 2021).

One test relates to P. aeruginosa MDR 2638. The experiment in a line: Broth microdilution MIC / FICI. Type of test: cell-based. Conditions: Pseudomonas aeruginosa, MDR2638. As to the method:
(§1) Antimicrobial efficacy was assessed by the broth microdilution assay in accordance with NCCLS guidelines (Coyle, Marie B. Manual of antimicrobial susceptibility testing. American Society for Microbiology, 2005). Organisms were grown overnight on non-selective MHA medium in order to obtain single colonies. Three to five morphologically distinct colonies were touched with a sterile pipet tip and transferred to a culture tube containing MHB (4 mL), and the broth culture was incubated at 37° C. until its turbidity matched a 0.5 McFarland Standard. The inoculum was then diluted 1:20 in sterile water, followed by a 1:10 dilution when inoculating wells of a 96-well plate. […] For combinations, the fractional inhibitory concentration index (FICI) was calculated using the following equation: […]
A general note: Dilution methods test growth across graded concentrations, often in twofold steps.

The next test deals with P. aeruginosa MDR 24530. The experiment in a line: Broth microdilution MIC / FICI. Type of test: cell-based. Conditions: Pseudomonas aeruginosa, MDR24530. The procedure: as §1
Another test has as its system P. aeruginosa MDR 3072. Kind of test: Broth microdilution MIC / FICI. Type of test: cell-based. Conditions: Pseudomonas aeruginosa, MDR3072. The procedure:
as §1

For test [1], the system named is P. aeruginosa MDR strain 3072. The experiment in a line: Disk diffusion, zones of inhibition. Format: cell-based, Pseudomonas aeruginosa. The procedure: (§2) Single colonies were grown in MHB to match a 0.5 McFarland standard. A sterile cotton swab was dipped into the various MDR strain inoculums and spread evenly over the surface of the agar plates. Purchased antibiotic-containing disks at fixed concentrations (Table 4) were placed on the surface of each plate and incubated overnight at 37° C. Zones of inhibition were measured the following morning. Measurements included the diameter (d) of the antibiotic disk (6 mm) and are reported in terms of diameters and areas. […] Typically for diameters, R<10, I 11-15, and S>15 where R=resistance, I=intermediate resistance, and S=susceptible.

In test [2] the test system is P. aeruginosa MDR strain 24530. Kind of test: Disk diffusion, zones of inhibition. Type of test: cell-based, Pseudomonas aeruginosa. The procedure:
as §2
Background: Agar diffusion results depend on both activity and mobility in agar.

The subject of test [3] is P. aeruginosa ATCC 27853. The experiment in a line: Disk diffusion, zones of inhibition. Format: cell-based, Pseudomonas aeruginosa. Conditions: for zone of inhibition, A: same disks and plates. The procedure: as §2
Test [4] deals with P. aeruginosa PAO1. Kind of test: Disk diffusion, zones of inhibition. Format: cell-based, Pseudomonas aeruginosa. The procedure: as §2
The next test deals with E. coli ATCC 25922. Kind of test: Broth microdilution MIC / FICI. Format: cell-based. Conditions: Escherichia coli, ATCC25922. As to the method: (§3) Antimicrobial efficacy was assessed by the broth microdilution assay in accordance with NCCLS guidelines (Coyle, Marie B. Manual of antimicrobial susceptibility testing. American Society for Microbiology, 2005). Organisms were grown overnight on non-selective MHA medium in order to obtain single colonies. Three to five morphologically distinct colonies were touched with a sterile pipet tip and transferred to a culture tube containing MHB (4 mL), and the broth culture was incubated at 37° C. until its turbidity matched a 0.5 McFarland Standard. The inoculum was then diluted 1:20 in sterile water, followed by a 1:10 dilution when inoculating wells of a 96-well plate. […] For combinations, the fractional inhibitory concentration index (FICI) was calculated using the following equation: [formula]

The test system of test [5] is P. aeruginosa ATCC 27853. The experiment in a line: Broth microdilution MIC / FICI. Format: cell-based. Conditions: Pseudomonas aeruginosa, ATCC27853. As to the method: as §3
The subject of test [6] is P. aeruginosa PAO1. Kind of test: Broth microdilution MIC / FICI. Format: cell-based. Conditions: Pseudomonas aeruginosa. The procedure: as §3
Test [7] concerns P. aeruginosa reference strains (ATCC 27853 and PAO1). Kind of test: Dose response of growth (OD600) to F127-(DFO-Ga)2/ERY. Format: cell-based, Pseudomonas aeruginosa. Conditions: 50 μg/mL ERY alone.
The subject of test [8] is MDR strains (2638, 3072, and 24530) of P. aeruginosa. The experiment in a line: Growth inhibition by F127-(DFO-Ga)2/ERY, MDR strains. Type of test: cell-based, Pseudomonas aeruginosa. Conditions: 244 μM F127-(DFO-Ga)2 and/or 50 μg/mL ERY. The procedure:
At time points of 0, 1, 2, and 4 hours, a small aliquot was removed from the broth culture, logarithmically diluted in M9 salts, and then spread onto cation-adjusted Mueller-Hinton agar plates. After overnight incubation at 37° C., colonies were counted and the number of CFU/mL was calculated.

The mark [9] stands for this setting: MDR 2638, antibiotic alone, read-out: MIC.
Where [10] appears, read: MDR 24530, antibiotic alone, read-out: MIC.
The mark [11] stands for this setting: MDR 3072, antibiotic alone, read-out: MIC.
[12] abbreviates: Pseudomonas aeruginosa, 3072, disks NVB 30 μg, ERY 15 μg, RIF 5 μg, VAN 30 μg, MHA with or without 256 μM DG-F125, includes 6 mm disk, read-out: zone of inhibition, d.
Where [13] appears, read: Pseudomonas aeruginosa, 24530, disks NVB 30 μg, ERY 15 μg, RIF 5 μg, VAN 30 μg, MHA with or without 256 μM DG-F125, includes 6 mm disk, read-out: zone of inhibition, d.
Setting [14] is: Pseudomonas aeruginosa, ATCC27853, 27853, disks NVB 30 μg, ERY 15 μg, RIF 5 μg, VAN 30 μg, MHA with or without 256 μM DG-F125, includes 6 mm disk, read-out: zone of inhibition, d.
The mark [15] stands for this setting: Pseudomonas aeruginosa, PAO1, disks NVB 30 μg, ERY 15 μg, RIF 5 μg, VAN 30 μg, MHA with or without 256 μM DG-F125, includes 6 mm disk, read-out: zone of inhibition, d.
Where [16] appears, read: E. coli ATCC 25922, antibiotic alone, Table 3, read-out: MIC.
The mark [17] stands for this setting: PAO1, antibiotic alone, Table 3, read-out: MIC.
Setting [18] is: Pseudomonas aeruginosa, read-out: zone of inhibition, d.
The mark [19] stands for this setting: E. coli ATCC 25922, Example 9, read-out: MIC (Table 7, agent alone).
Where [20] appears, read: P. aeruginosa ATCC 27853, Example 9, read-out: MIC (Table 7, agent alone).
Where [21] appears, read: P. aeruginosa PAO1, Example 9, read-out: MIC (Table 7, agent alone).

Where two headings read alike, the source gives them in different places.

The term MIC denotes the lowest concentration that inhibits growth of the organism. In general, zone of inhibition refers to the size of the clear area around the sample on an inoculated plate. In the case of `CO[C@H]1/C=C/O[C@@]2(C)Oc3c(C)c(O)c4c(O)c(c(/C=N/N5CCN(C)CC5)c(O)c4c3C2=O)NC(=O)/C(C)=C\C=C\[C@H](C)[C@H](O)[C@@H](C)[C@@H](O)[C@@H](C)[C@H](OC(C)=O)[C@@H]1C` [RIF, rifampicin], the MIC in the test with P. aeruginosa MDR 2638 (setting [9]) is 8 µg/mL; in the test with P. aeruginosa MDR 24530 (setting [10]), 16 µg/mL; in the test on P. aeruginosa MDR 3072 (setting [11]), 16 µg/mL; with E. coli ATCC 25922 (setting [16]), 4 µg/mL; in the test with P. aeruginosa ATCC 27853 [5] (ATCC 27853, antibiotic alone, Table 3, read-out: MIC), 16 µg/mL; in the test with P. aeruginosa PAO1 [6] (setting [17]) it was 16 µg/mL. In addition, the “zone of inhibition, A” value stood at 0 mm^2 in test [1] (3072, same disks and plates); 0 mm^2 in test [2] (24530, same disks and plates); 0 mm^2 in the test with P. aeruginosa ATCC 27853 [3] (27853); 33 mm^2 in the test with P. aeruginosa PAO1 [4] (PAO1, same disks and plates). Besides, the zone of inhibition at 5 µg/disc in [1] (setting [12]) is 0 mm; in [2] (setting [13]) it was 0 mm; in the test with P. aeruginosa ATCC 27853 [3] (setting [14]), 0 mm; in the test on P. aeruginosa PAO1 [4] (setting [15]), 6.5 mm.
Turning to `CN[C@H](CC(C)C)C(=O)N[C@H]1C(=O)N[C@@H](CC(N)=O)C(=O)N[C@H]2C(=O)N[C@H]3C(=O)N[C@H](C(=O)N[C@H](C(=O)O)c4cc(O)cc(O)c4-c4cc3ccc4O)[C@H](O)c3ccc(c(Cl)c3)Oc3cc2cc(c3O[C@@H]2O[C@H](CO)[C@@H](O)[C@H](O)[C@H]2O[C@H]2C[C@](C)(N)[C@H](O)[C@H](C)O2)Oc2ccc(cc2Cl)[C@H]1O` [VAN, vancomycin], the MIC with P. aeruginosa MDR 2638 was 512 µg/mL; with P. aeruginosa MDR 24530, 1020 µg/mL; in the test with P. aeruginosa MDR 3072 it was over 1020 µg/mL; in the test with E. coli ATCC 25922, 128 µg/mL; in the test on P. aeruginosa ATCC 27853 [5], over 1020 µg/mL; with P. aeruginosa PAO1 [6] (PAO1), over 1020 µg/mL. For the same compound, the “zone of inhibition, A” value in [1] (3072, same disks and plates) was found to be 0 mm^2; in [2] (24530, same disks and plates) it was 0 mm^2; with P. aeruginosa ATCC 27853 [3] (27853), 0 mm^2; in the test with P. aeruginosa PAO1 [4] (PAO1, same disks and plates), 0 mm^2. The zone of inhibition at 30 µg/disc in test [1] (setting [18]) stood at 0 mm; in test [2] (setting [18]), 0 mm; in the test on P. aeruginosa ATCC 27853 [3] (Pseudomonas aeruginosa, ATCC27853, read-out: zone of inhibition, d), 0 mm; in the test on P. aeruginosa PAO1 [4] (Pseudomonas aeruginosa, PAO1, read-out: zone of inhibition, d) it was 0 mm. In the test on P. aeruginosa PAO1 [4] (PAO1, same disks and plates), the “A of region where some growth is still visible (in parentheses)” value stood at 64 mm^2. The “d of region where some growth is still visible (in parentheses)” value in the test with P. aeruginosa PAO1 [4] (PAO1, same disks and plates) was 9 mm.
Consider `CO[C@@H]1[C@@H](OC(N)=O)[C@@H](O)[C@H](Oc2ccc3c(O)c(NC(=O)c4ccc(O)c(CC=C(C)C)c4)c(=O)oc3c2C)OC1(C)C` [NVB, novobiocin sodium], for which the MIC in the test on P. aeruginosa MDR 2638 (setting [9]) is over 512 µg/mL; in the test on P. aeruginosa MDR 24530 (setting [10]) it was over 512 µg/mL; in the test with P. aeruginosa MDR 3072 (setting [11]) it was over 512 µg/mL; with E. coli ATCC 25922 (setting [19]), 48 µg/mL; in the test with E. coli ATCC 25922 (setting [16]) it was 32 µg/mL; in the test with P. aeruginosa ATCC 27853 [5] it was 128 µg/mL. Moreover, the minimum inhibitory concentration (MIC) was over 128 µg/mL in the test on P. aeruginosa ATCC 27853 [5] (setting [20]), over 128 µg/mL in the test with P. aeruginosa PAO1 [6] (setting [21]) and over 512 µg/mL in the test with P. aeruginosa PAO1 [6] (setting [17]). Besides, the “zone of inhibition, A” value in test [1] (3072, same disks and plates) was 0 mm^2; in test [2] (24530, same disks and plates), 0 mm^2; in the test with P. aeruginosa ATCC 27853 [3] (27853) it was 44 mm^2; with P. aeruginosa PAO1 [4] (PAO1, same disks and plates), 0 mm^2. For the same compound, the zone of inhibition at 30 µg/disc in [1] (setting [12]) is 0 mm; in test [2] (setting [13]) it was 0 mm; with P. aeruginosa ATCC 27853 [3] (setting [14]), 7.5 mm; in the test on P. aeruginosa PAO1 [4] (setting [15]), 0 mm.
Regarding `CC[C@H]1OC(=O)[C@H](C)[C@@H](O[C@H]2C[C@@](C)(OC)[C@@H](O)[C@H](C)O2)[C@H](C)[C@@H](O[C@@H]2O[C@H](C)C[C@H](N(C)C)[C@H]2O)[C@](C)(O)C[C@@H](C)C(=O)[C@H](C)[C@@H](O)[C@]1(C)O` [ERY, erythromycin], in [7], the “reduction in the OD600 compared to the positive control” value is on record as “approximately 40%”. The MIC with P. aeruginosa MDR 2638 was found to be 512 µg/mL; in the test with P. aeruginosa MDR 24530, 512 µg/mL; in the test on P. aeruginosa MDR 3072, 512 µg/mL; in the test with E. coli ATCC 25922 (setting [19]), 32 µg/mL; in the test with E. coli ATCC 25922 (setting [16]) it was 32 µg/mL; with P. aeruginosa ATCC 27853 [5], 256 µg/mL. Also, the figures for the MIC in the test on P. aeruginosa ATCC 27853 [5] (setting [20]), in the test with P. aeruginosa PAO1 [6] (PAO1) and in the test on P. aeruginosa PAO1 [6] (setting [21]) were over 128 µg/mL, 256 µg/mL and over 128 µg/mL, respectively. Moreover, the “A of region where some growth is still visible (in parentheses)” value is given as “(283) mm^2” in test [1] (3072, same disks and plates); “(133) mm^2” in [2] (24530, same disks and plates). Also, the “d of region where some growth is still visible (in parentheses)” value in test [1] (3072, same disks and plates) is recorded as “(19) mm”; in [2] (24530, same disks and plates), “(13) mm”. Besides, the “zone of inhibition, A” value in test [1] (3072, same disks and plates) turned out to be 0 mm^2; in test [2] (24530, same disks and plates) it was 0 mm^2; with P. aeruginosa ATCC 27853 [3] (27853), 95 mm^2; in the test with P. aeruginosa PAO1 [4] (PAO1, same disks and plates) it was 64 mm^2. The zone of inhibition at 15 µg/disc in test [1] (setting [12]) amounted to 0 mm; in test [2] (setting [13]), 0 mm; in the test on P. aeruginosa ATCC 27853 [3] (setting [14]) it was 11 mm; with P. aeruginosa PAO1 [4] (setting [15]) it was 9 mm. Besides, the bacterial growth result in [8] was “similarly ineffective”.
